Reference: ChEMBL document CHEMBL5120855, “Potent 2,3-dihydrophthalazine-1,4-dione derivatives as dual inhibitors for mono-ADP-ribosyltransferases PARP10 and PARP15” (Eur J Med Chem, 2022)
pIC50: −log10 of the molar value.

What was measured:
[1] = biological target: Protein mono-ADP-ribosyltransferase PARP14 (Homo sapiens, UniProt Q460N5); assay: Inhibition of human PARP14 using NAD+ as substrate incubated for 10 mins by fluorescence based analysis
[2] = biological target: T1, Protein mono-ADP-ribosyltransferase PARP10 (Homo sapiens, UniProt Q53GL7); assay: Inhibition of human PARP-10 using NAD+ as substrate incubated for 10 mins by fluorescence based analysis
T1 sequence (Q53GL7 whole entry): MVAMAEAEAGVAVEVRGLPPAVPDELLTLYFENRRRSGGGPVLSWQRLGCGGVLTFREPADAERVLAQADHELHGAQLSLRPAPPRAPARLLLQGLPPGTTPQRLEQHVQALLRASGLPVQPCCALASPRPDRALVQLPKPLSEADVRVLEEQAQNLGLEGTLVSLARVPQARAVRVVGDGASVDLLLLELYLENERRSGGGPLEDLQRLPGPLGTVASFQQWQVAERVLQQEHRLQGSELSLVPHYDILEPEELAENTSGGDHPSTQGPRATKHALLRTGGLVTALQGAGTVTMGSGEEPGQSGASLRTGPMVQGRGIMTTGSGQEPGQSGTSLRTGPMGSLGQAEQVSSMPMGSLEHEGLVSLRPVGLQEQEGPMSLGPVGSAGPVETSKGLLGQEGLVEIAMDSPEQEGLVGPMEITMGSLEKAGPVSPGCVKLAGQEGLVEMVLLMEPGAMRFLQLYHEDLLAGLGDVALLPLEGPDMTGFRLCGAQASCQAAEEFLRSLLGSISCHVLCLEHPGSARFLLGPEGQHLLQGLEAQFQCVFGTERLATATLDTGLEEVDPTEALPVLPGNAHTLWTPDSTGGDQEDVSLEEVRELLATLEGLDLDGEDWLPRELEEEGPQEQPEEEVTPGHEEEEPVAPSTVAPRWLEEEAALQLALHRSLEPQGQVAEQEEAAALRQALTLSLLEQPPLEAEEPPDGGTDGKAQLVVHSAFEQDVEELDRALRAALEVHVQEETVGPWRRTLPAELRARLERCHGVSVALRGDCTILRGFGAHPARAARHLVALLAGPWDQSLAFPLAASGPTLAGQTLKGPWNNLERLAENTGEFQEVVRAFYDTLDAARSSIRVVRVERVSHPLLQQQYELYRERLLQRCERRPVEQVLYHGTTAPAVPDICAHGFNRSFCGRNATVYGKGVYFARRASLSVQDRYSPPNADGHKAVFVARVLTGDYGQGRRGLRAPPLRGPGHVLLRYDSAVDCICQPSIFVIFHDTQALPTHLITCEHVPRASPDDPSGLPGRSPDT

Sequence of Protein mono-ADP-ribosyltransferase PARP14 (Q460N5 whole entry): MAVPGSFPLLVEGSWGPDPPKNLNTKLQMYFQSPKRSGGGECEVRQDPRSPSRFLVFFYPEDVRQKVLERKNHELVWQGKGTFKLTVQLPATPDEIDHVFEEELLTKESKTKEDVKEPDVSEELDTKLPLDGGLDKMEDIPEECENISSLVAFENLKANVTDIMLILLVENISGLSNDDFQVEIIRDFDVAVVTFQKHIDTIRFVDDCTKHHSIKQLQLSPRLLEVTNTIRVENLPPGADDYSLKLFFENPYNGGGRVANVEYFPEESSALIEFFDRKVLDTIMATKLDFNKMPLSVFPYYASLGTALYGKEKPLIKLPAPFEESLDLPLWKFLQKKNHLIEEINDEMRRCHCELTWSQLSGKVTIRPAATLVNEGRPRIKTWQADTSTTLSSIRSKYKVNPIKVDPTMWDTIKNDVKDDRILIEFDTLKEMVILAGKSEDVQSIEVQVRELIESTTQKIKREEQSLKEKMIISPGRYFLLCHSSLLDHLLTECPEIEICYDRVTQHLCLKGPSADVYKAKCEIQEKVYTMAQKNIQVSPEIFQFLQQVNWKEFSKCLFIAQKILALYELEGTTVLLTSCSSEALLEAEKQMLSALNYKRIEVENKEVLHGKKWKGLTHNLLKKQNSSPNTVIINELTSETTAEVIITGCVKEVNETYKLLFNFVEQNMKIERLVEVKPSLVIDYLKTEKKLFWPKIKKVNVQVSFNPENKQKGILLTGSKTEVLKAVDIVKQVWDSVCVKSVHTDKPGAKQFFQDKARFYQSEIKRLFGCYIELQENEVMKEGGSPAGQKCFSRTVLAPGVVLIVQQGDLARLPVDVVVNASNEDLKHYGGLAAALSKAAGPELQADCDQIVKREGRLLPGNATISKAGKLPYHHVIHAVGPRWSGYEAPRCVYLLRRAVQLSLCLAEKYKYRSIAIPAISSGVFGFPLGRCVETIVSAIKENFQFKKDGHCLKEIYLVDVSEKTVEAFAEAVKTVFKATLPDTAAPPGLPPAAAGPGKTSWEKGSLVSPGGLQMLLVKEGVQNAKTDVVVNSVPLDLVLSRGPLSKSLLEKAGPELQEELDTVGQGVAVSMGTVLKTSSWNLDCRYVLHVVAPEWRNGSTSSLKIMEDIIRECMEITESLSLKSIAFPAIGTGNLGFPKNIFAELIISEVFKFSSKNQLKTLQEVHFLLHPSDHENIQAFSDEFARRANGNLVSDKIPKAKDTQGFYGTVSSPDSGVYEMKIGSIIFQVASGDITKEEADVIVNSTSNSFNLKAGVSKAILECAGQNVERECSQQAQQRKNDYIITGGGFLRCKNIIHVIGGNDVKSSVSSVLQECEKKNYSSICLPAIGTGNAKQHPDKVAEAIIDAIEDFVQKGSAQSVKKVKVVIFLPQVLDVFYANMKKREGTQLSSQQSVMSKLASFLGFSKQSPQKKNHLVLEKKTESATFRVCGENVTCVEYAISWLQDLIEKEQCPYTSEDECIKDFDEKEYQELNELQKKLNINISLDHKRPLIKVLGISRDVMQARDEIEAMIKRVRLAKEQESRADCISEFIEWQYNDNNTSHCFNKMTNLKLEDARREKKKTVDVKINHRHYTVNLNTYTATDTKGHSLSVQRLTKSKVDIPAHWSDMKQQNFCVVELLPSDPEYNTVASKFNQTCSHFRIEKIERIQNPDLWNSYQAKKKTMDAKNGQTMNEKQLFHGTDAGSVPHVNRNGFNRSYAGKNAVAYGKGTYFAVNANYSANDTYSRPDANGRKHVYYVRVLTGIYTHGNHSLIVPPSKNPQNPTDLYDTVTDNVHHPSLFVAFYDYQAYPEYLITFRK

pIC50 [1]: < 5.00 | pIC50 [2]: 6.54
SMILES: NC(=O)c1ccc(OCC2CCC2)cc1
